{
  "source": "patent US9975906B2",
  "about": "“Tricyclic heterocycle derivatives having HIV replication inhibitory effect” (Shionogi & Co., Ltd., priority 2014, dated 2018)",
  "target": "T1, CYP2C9 (Homo sapiens, UniProt P11712)",
  "T1 construct": "enzyme, pooled human hepatic microsome 0.2 mg protein/mL; from tissue",
  "T1 sequence (P11712 whole entry)": "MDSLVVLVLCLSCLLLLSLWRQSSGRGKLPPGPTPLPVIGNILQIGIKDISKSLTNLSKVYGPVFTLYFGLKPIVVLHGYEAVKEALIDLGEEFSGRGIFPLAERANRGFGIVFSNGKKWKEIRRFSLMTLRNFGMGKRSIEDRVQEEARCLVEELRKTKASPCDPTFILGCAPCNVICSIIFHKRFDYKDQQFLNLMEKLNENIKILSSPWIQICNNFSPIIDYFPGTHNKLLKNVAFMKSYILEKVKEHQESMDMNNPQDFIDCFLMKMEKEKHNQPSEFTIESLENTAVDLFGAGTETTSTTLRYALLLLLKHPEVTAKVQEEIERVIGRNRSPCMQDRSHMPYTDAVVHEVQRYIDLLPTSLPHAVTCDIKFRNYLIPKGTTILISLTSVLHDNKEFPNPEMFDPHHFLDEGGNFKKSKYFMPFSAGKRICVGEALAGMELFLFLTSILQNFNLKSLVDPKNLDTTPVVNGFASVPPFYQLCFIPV",
  "assay": "CYP Inhibition Assay (tolbutamide methyl-hydroxylation)",
  "type": "in vitro ADME",
  "settings": "pooled human hepatic microsome, 100 μmol/L tolbutamide, 15 minutes, 37° C.",
  "description": "Using commercially available pooled human hepatic microsome, and employing, as markers, 7-ethoxyresorufin O-deethylation (CYP1A2), tolbutamide methyl-hydroxylation (CYP2C9), mephenytoin 4'-hydroxylation (CYP2C19), dextromethorphan O-demethylation (CYP2D6), and terfenadine hydroxylation (CYP3A4) as typical substrate metabolism reactions of human main five CYP enzyme forms (CYP1A2, 2C9, 2C19, 2D6, 3A4) an inhibitory degree of each metabolite production amount by a test compound was assessed. […] After the centrifugation at 3000 rpm for 15 minutes, resorufin (CYP1A2 metabolite) in the supernatant was quantified by a fluorescent multilabel counter and tolbutamide hydroxide (CYP2C9 metabolite), mephenytoin 4' hydroxide (CYP2C19 metabolite), dextrorphan (CYP2D6 metabolite), and terfenadine alcohol (CYP3A4 metabolite) were quantified by LC/MS/MS. A reaction system containing only DMSO which is a solvent for dissolving a drug was adopted as a control (100%), and the remaining activity (%) was calculated, then IC50 was calculated by reverse presumption with a logistic model using a concentration and an inhibition rate.",
  "data": [
    {"smiles": "Cc1ccc(-c2c([C@H](OC(C)(C)C)C(=O)O)c(C)c3c4c2cc(-c2ccnc(-c5ccc6c(cnn6C)c5)c2)n4CCN3CCN(C)C)cc1", "note": "[Compound I-034]", "values": [
      {"measurement": "IC50", "result": "> 20", "unit": "µM"}
    ]}
  ]
}
